Calls of active or inactive are those of the source. No cut-off for these calls is given here.

The text below walks through data of ChEMBL document CHEMBL5505981, “Design, synthesis and biological evaluation of novel 1,2,4a,5-tetrahydro-4H-benzo[b][1,4]oxazino[4,3-d][1,4]oxazine-based AAK1 inhibitors with anti-viral property against SARS-CoV-2” (Eur J Med Chem, 2024).

In experiment [1] the test system is SARS-CoV-2. The class given is functional, organism-based. Particulars: Severe acute respiratory syndrome coronavirus 2; HEK293; dose 3.0 µM, time 25.0 hrs.
Experiment [2] relates to SARS-CoV-2. The experiment is classed as functional, organism-based. As to conditions: Severe acute respiratory syndrome coronavirus 2; HEK293; dose 3.0 µM, time 4.0 hrs.
Experiment [3] has as its system HEK293. The class given is cell-based. As to conditions: Homo sapiens, dose 1-3 µM, time 4.0 hrs.
Experiment [4] deals with SARS-CoV-2. Put plainly: microbe, parasite or virus in culture. Particulars: Severe acute respiratory syndrome coronavirus 2, HEK293.
In experiment [5] the test system is SARS-CoV-2. The experiment is classed as functional, organism-based. Particulars: Severe acute respiratory syndrome coronavirus 2; HEK293; dose 10.0 µM, time 6.0 hrs.
Experiment [6] concerns SARS-CoV-2. The class given is functional, organism-based. Particulars: Severe acute respiratory syndrome coronavirus 2; HEK293; dose 10.0 µM, time 6.0 hrs. This is another data set of the same source.
Experiment [7] relates to HEK293. The experiment is classed as cell-based. Particulars: Homo sapiens, dose 5-10 µM, time 4.0 hrs.
Experiment [8] concerns SARS-CoV-2. The experiment is classed as functional, organism-based. Particulars: Severe acute respiratory syndrome coronavirus 2; HEK293; dose 5.0 µM, time 6.0 hrs.
For experiment [9], the system named is SARS-CoV-2. The experiment is classed as functional, organism-based. Particulars: Severe acute respiratory syndrome coronavirus 2; HEK293; dose 5.0 µM, time 6.0 hrs. This is another data set of the same source.

For `COc1ccc(-c2cnc3[nH]cc(C#Cc4cccnc4)c3c2)cc1OC`, the inhibition result with SARS-CoV-2 [1] and with HEK293 [3] was “Active” throughout. In addition, the result in the experiment on SARS-CoV-2 [2] was Active. In the experiment on SARS-CoV-2 [4], this molecule showed an IC50 of roughly 3.11 µM.

With `CCN(CC)S(=O)(=O)Nc1cccc(-c2ccc3c(NC(=O)C4CC4)n[nH]c3c2)c1`, the outcome with SARS-CoV-2 [5], in the experiment with SARS-CoV-2 [6] and with SARS-CoV-2 [2] was Active. In the experiment on HEK293 [7], the inhibition result was “Active”.

Turning to `C(#Cc1c[nH]c2ncc(-c3ccc4c(c3)OCC3COCCN43)cc12)c1cccnc1` (configuration not stated), the inhibition entry in the experiment with SARS-CoV-2 [1] and in the experiment with HEK293 [3] was “Active” each time. Also, in the experiment with SARS-CoV-2 [2], the result was Active. This molecule also had an IC50 in the experiment on SARS-CoV-2 [4] of roughly 2.9 µM.

`CCN(CC)CCNC(=O)c1c(C)[nH]c(/C=C2\C(=O)Nc3ccc(F)cc32)c1C` [SUNITINIB] came in with an IC50 with SARS-CoV-2 [4] of roughly 1.96 µM.

Take `CC(C)C[C@](C)(N)COc1ccc(-c2ccnc(C(F)F)c2)nc1C(F)F` [PILAVAPADIN]: the result with SARS-CoV-2 [8], in the experiment with SARS-CoV-2 [9] and in the experiment on SARS-CoV-2 [2] was Active. In addition, in the experiment with SARS-CoV-2 [4], the IC50 was roughly 4.18 µM.
